Results: ChEMBL document CHEMBL1201862, “PubChem BioAssay data set” (2004)
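All cell lines were grown in 96-well plates and treated with compound for 48 hours. Here, GI50 denotes the concentration required for 50% inhibition of growth.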 The source made the active and inactive calls. Rule as the data show it: active = GI50 up to about 1.1 µM and inactive = higher.

Columns and labels:
Assay in all cases: DTP human tumour cell line panel, 48 h
K562 = tested on: K562
SK-OV-3 = tested on: SK-OV-3
CCRF-CEM = tested on: CCRF-CEM
OVCAR-3 = tested on: OVCAR-3
HOP-18 = tested on: HOP-18
NCI-H226 = tested on: NCI-H226
CAKI-1 = tested on: CAKI-1
RXF 393 = tested on: RXF 393
LOX IMVI = tested on: LOX IMVI
HCT-116 = tested on: HCT-116
DLD-1 = tested on: DLD-1
UO-31 = tested on: UO-31
HCC 2998 = tested on: HCC 2998
RXF 631 = tested on: RXF 631
A549 = tested on: A549
NCI-H522 = tested on: NCI-H522
HCT-15 = tested on: HCT-15
UACC-62 = tested on: UACC-62
SNB-78 = tested on: SNB-78
SK-MEL-2 = tested on: SK-MEL-2
OVCAR-4 = tested on: OVCAR-4
TK-10 = tested on: TK-10
RPMI-8226 = tested on: RPMI-8226
SNB-75 = tested on: SNB-75
HOP-62 = tested on: HOP-62
DMS-273 = tested on: DMS-273
Malme-3M = tested on: Malme-3M
LXFL 529 = tested on: LXFL 529
SNB-19 = tested on: SNB-19
COLO 205 = tested on: COLO 205
DMS-114 = tested on: DMS-114
M14 = tested on: M14
SR = tested on: SR
UACC-257 = tested on: UACC-257
SF-268 = tested on: SF-268
HL-60 = tested on: HL-60
SK-MEL-28 = tested on: SK-MEL-28
SK-MEL-5 = tested on: SK-MEL-5
MOLT-4 = tested on: MOLT-4
786-0 = tested on: 786-0
HT-29 = tested on: HT-29
OVCAR-5 = tested on: OVCAR-5
M19-MEL = tested on: M19-MEL
SF-295 = tested on: SF-295
NCI-H23 = tested on: NCI-H23
SN12C = tested on: SN12C
NCI-H460 = tested on: NCI-H460
KM-20L2 = tested on: KM-20L2
EKVX = tested on: EKVX
SF-539 = tested on: SF-539
KM12 = tested on: KM12
OVCAR-8 = tested on: OVCAR-8
SW-620 = tested on: SW-620
ACHN = tested on: ACHN
A498 = tested on: A498
U-251 = tested on: U-251
HOP-92 = tested on: HOP-92
XF498 = tested on: XF498
IGROV-1 = tested on: IGROV-1

In the case of `CC(C)N(C(=O)C12C3C4C1C1C2C3C41C#N)C(C)C` (centres undefined), the GI50 (K562) is reported as > 69.2 µM (inactive), the GI50 (SK-OV-3) is reported as > 100 µM (inactive) and the GI50 (CCRF-CEM) is reported as > 50 µM (inactive). For the same compound, the GI50 (OVCAR-3) was > 100 µM (inactive), the GI50 (HOP-18) was > 100 µM (inactive) and the GI50 (NCI-H226) was > 100 µM (inactive). The GI50 (CAKI-1) was > 100 µM (inactive), the GI50 (RXF 393) was > 100 µM (inactive) and the GI50 (LOX IMVI) was > 47.1 µM (inactive). The GI50 (HCT-116) was > 100 µM (inactive), the GI50 (DLD-1) was > 72.8 µM (inactive) and the GI50 (UO-31) was > 100 µM (inactive). For the same compound, the GI50 (HCC 2998) was > 100 µM (inactive), the GI50 (RXF 631) was > 100 µM (inactive) and the GI50 (A549) was > 100 µM (inactive). The GI50 (NCI-H522) was > 87.1 µM (inactive), the GI50 (HCT-15) was over 72.8 µM and the GI50 (UACC-62) was > 100 µM (inactive). The GI50 (SNB-78) was > 100 µM (inactive), the GI50 (SK-MEL-2) was > 100 µM (inactive) and the GI50 (OVCAR-4) was > 100 µM (inactive). The GI50 (TK-10) was > 100 µM (inactive), the GI50 (RPMI-8226) was > 46.7 µM (inactive) and the GI50 (SNB-75) was > 84.7 µM (inactive). The GI50 (HOP-62) was > 100 µM (inactive), the GI50 (DMS-273) was > 71.8 µM (inactive) and the GI50 (Malme-3M) was > 100 µM (inactive). For the same compound, the GI50 (LXFL 529) was > 100 µM (inactive), the GI50 (SNB-19) was > 100 µM (inactive) and the GI50 (COLO 205) was > 100 µM (inactive). The GI50 (DMS-114) was > 100 µM (inactive), the GI50 (M14) was > 100 µM (inactive) and the GI50 (SR) was 20.2 µM (inactive). For the same compound, the GI50 (UACC-257) was > 100 µM (inactive), the GI50 (SF-268) was > 100 µM (inactive) and the GI50 (HL-60) was > 41.4 µM (inactive). For the same compound, the GI50 (SK-MEL-28) was > 100 µM (inactive), the GI50 (SK-MEL-5) was > 100 µM (inactive) and the GI50 (MOLT-4) was > 100 µM (inactive). The GI50 (786-0) was > 100 µM (inactive), the GI50 (HT-29) was > 100 µM (inactive) and the GI50 (OVCAR-5) was > 100 µM (inactive). For the same compound, the GI50 (M19-MEL) was > 100 µM (inactive), the GI50 (SF-295) was > 100 µM (inactive) and the GI50 (NCI-H23) was > 100 µM (inactive). For the same compound, the GI50 (SN12C) was > 100 µM (inactive), the GI50 (NCI-H460) was > 100 µM (inactive) and the GI50 (KM-20L2) was > 100 µM (inactive). The GI50 (EKVX) was > 100 µM (inactive), the GI50 (SF-539) was > 100 µM (inactive) and the GI50 (KM12) was > 100 µM (inactive). For the same compound, the GI50 (OVCAR-8) was > 100 µM (inactive), the GI50 (SW-620) was > 54.5 µM (inactive) and the GI50 (ACHN) was > 100 µM (inactive). The GI50 (A498) was > 100 µM (inactive), the GI50 (U-251) was > 100 µM (inactive) and the GI50 (HOP-92) was > 100 µM (inactive). The GI50 (XF498) was > 100 µM (inactive) and the GI50 (IGROV-1) was > 100 µM (inactive).
